What was measured:
[1] = system: HPV-specific T cells / HLA-matched and mismatched PHA blasts; test: HLA restriction mapping with peptide loaded HLA-matched and mismatched PHA blasts; format: cell-based, human; conditions: epitopes mapped in HNC patient T cells, Table 1
Method: (§1) Peripheral blood mononuclear cells (PBMCs) from HNC patients were isolated and stimulated with HPV antigen pepmix peptide pools for either HPV16 or HPV18 in separate cultures and prepared for the intracellular cytokine staining (ICS) assay, as described above (non-stimulated controls were run in parallel). T cell response to the pepmix peptide pools was analyzed to identify individual peptides. These individual peptides were further assessed for T cell expansion and ICS analysis to identify potential epitopes. Once the 15mer peptide was identified, further mimimalization of the epitope sequence was carried out to identify the optimal T cell epitope sequence. The 15mer peptide sequences were trimmed from both N- and C-terminus to a minimal of 9-14 amino acid long peptides. Once the minimal peptide sequence was identified, further confirmation was carried out using limiting dose titration ICS assay. After mapping minimal epitope sequence, the HLA restriction of the epitope was identified by stimulating T cells using peptide loaded HLA-matched and mismatched PHA blasts (PHA).

[2] = system: HPV-specific T cells from HNC patients; test: HPV T-cell epitope mapping by intracellular cytokine staining (ICS); format: cell-based, human; conditions: for T cell specificity: epitopes mapped in HNC patient T cells, Table 1; for epitope identified by fine-mapping: FIG. 5 and FIG. 6
Method: as §1
Representative data showing that HPV-specific T cells from HNC patients recognized HPV16-E6, HPV18-E6 antigens can be found in FIGS. 1 and 2, respectively. In order to map the T cell epitope, further analysis was carried out using sub pools of E6 peptides. […] When analyzed on an HPV peptide matrix layout, the common peptide sequence among the responding pools was identified.

## WKSFFSRTWSRLSLH (listed as Human papillomavirus)
[1]
  HLA restriction: DRB1*04:01
[2]
  T cell specificity: CD4^+

## TLLQQYCLYL
[2]
  T cell specificity: CD8^+

## TVLELTEVFEFA (listed as Human papillomavirus)
[2]
  epitope identified by fine-mapping: HPV18-E6 CD^+ T cell epitope
  T cell specificity: CD8^+

## NLDTASTTL (listed as Human papillomavirus)
[2]
  T cell specificity: CD8^+

## LEDLLMGTLGI (listed as Human papillomavirus)
[2]
  T cell specificity: CD8^+

## TLQDVSLEVYL (listed as Human papillomavirus)
[2]
  T cell specificity: CD8^+

## LQDVSLEVYL (listed as Human papillomavirus)
[2]
  T cell specificity: CD8^+

## DRAHYNIVTF (listed as Human papillomavirus)
[2]
  T cell specificity: CD8^+

## TIHDIILECV (listed as Human papillomavirus)
[2]
  T cell specificity: CD8^+

## SVDSAPILTAFNSSH (listed as Human papillomavirus)
[1]
  HLA restriction: DQB1*03:01
[2]
  T cell specificity: CD4^+

## RCINCQKPLCPEEKQRHLD (listed as Human papillomavirus)
[1]
  HLA restriction: DRB115:01
[2]
  T cell specificity: CD4^+

## VWEVHAGGQVI (listed as Human papillomavirus)
[2]
  T cell specificity: CD8^+

## SEIAYKYAQ (listed as Human papillomavirus)
[2]
  T cell specificity: CD8^+

## WPTTPPRPI (listed as Human papillomavirus)
[2]
  T cell specificity: CD8^+

## AFRDLCIVY (listed as Human papillomavirus)
[2]
  T cell specificity: CD8^+

## GRWTGRCMSC (listed as Human papillomavirus)
[2]
  T cell specificity: CD8^+

## TVLELTEVFEF (listed as Human papillomavirus)
[2]
  T cell specificity: CD8^+

## HIDYWKHMRLECALY (listed as Human papillomavirus)
[1]
  HLA restriction: DQB1*03:01
[2]
  T cell specificity: CD4^+

## IRCINCQKPL (listed as Human papillomavirus)
[2]
  T cell specificity: CD8^+

## FELSQMVQW (listed as Human papillomavirus)
[2]
  T cell specificity: CD8^+

## VYDYAFRDLCIVYRDGNPYAVCD (listed as Human papillomavirus)
[1]
  HLA restriction: DRB115:01
[2]
  T cell specificity: CD4^+

## SPATAFTVY (listed as Human papillomavirus)
[2]
  T cell specificity: CD8^+

## HDIILECVY (listed as Human papillomavirus)
[2]
  T cell specificity: CD8^+

## SAFRCFIVY (listed as Human papillomavirus)
[2]
  T cell specificity: CD8^+

## VQSTHVDIRTLEDLLMGTL (listed as Human papillomavirus)
[1]
  HLA restriction: DQB1*03:01
[2]
  T cell specificity: CD4^+

## LLMGTLGIV
[2]
  T cell specificity: CD8^+

## RPFKSNKST (listed as Human papillomavirus)
[2]
  T cell specificity: CD8^+

## TPTLHEYMLDLQPETTDLY (listed as Human papillomavirus)
[1]
  HLA restriction: DQB1*03:01
[2]
  T cell specificity: CD4^+

## FRDLCIVYR (listed as Human papillomavirus)
[2]
  T cell specificity: CD8^+

## EKQRHLDKKQRFHNIRGRWTGRCMSCC (listed as Human papillomavirus)
[1]
  HLA restriction: DRB115:01
[2]
  T cell specificity: CD4^+

## KLPQLCTEL (listed as Human papillomavirus)
[2]
  T cell specificity: CD8^+

## KQRFHNIRGRWTGRC
[2]
  epitope identified by fine-mapping: fine CD4 epitope-mapping of HPV16-E6 pools identified

## YEQLNDSSEEEDEID (listed as Human papillomavirus)
[1]
  HLA restriction: DQB1*03:01
[2]
  T cell specificity: CD4^+
